Source: publication PMC6357863, “Dithiocarbamate-inspired side chain stapling chemistry for peptide drug design” (Chemical Science, 2018)

System: not listed separately
Assay: circular dichroism
Settings: phosphate buffer (PB); pH 7.2; 20 °C; 10-50 uM
`CC(=O)N[C@H](C(=O)N[C@H]1CCCCNC(=S)SC[C@@H](C(=O)N[C@@H](Cc2c[nH]c3ccccc23)C(=O)N[C@@H](CC(N)=O)C(=O)N[C@@H](CC(C)C)C(=O)N[C@@H](CC(C)C)C(=O)N[C@@H](CO)C(=O)N2CCC[C@H]2C(N)=O)NC(=O)[C@H](CCC(=O)O)NC(=O)[C@H](C)NC(=O)[C@H](Cc2ccccc2)NC1=O)[C@@H](C)O` showed a helicity of 15.3%. With `CC(=O)N[C@H](C(=O)N[C@@H](CO)C(=O)N[C@@H](Cc1ccccc1)C(=O)N[C@H]1CSC(=S)NCCCC[C@@H](C(=O)N[C@@H](CC(C)C)C(=O)N[C@@H](CC(C)C)C(=O)N[C@@H](CO)C(=O)N2CCC[C@H]2C(N)=O)NC(=O)[C@H](Cc2c[nH]c3ccccc23)NC(=O)[C@H](Cc2ccc(O)cc2)NC(=O)[C@H](CCC(=O)O)NC1=O)[C@@H](C)O` the helicity was 9.15%. In the case of `CC(=O)N[C@H](C(=O)N[C@@H](CO)C(=O)N[C@@H](Cc1ccccc1)C(=O)N[C@@H](C)C(=O)N[C@H]1CSC(=S)NCCCC[C@@H](C(=O)N[C@@H](CC(C)C)C(=O)N[C@@H](CO)C(=O)N2CCC[C@H]2C(N)=O)NC(=O)[C@H](CC(N)=O)NC(=O)[C@H](Cc2c[nH]c3ccccc23)NC(=O)[C@H](Cc2ccc(O)cc2)NC1=O)[C@@H](C)O`, the helicity is reported as 9.58%. With `CC(=O)N[C@H](C(=O)N[C@@H](CO)C(=O)N[C@@H](Cc1ccccc1)C(=O)N[C@@H](C)C(=O)N[C@@H](CCC(=O)O)C(=O)N[C@@H](Cc1ccc(O)cc1)C(=O)N[C@@H](Cc1c[nH]c2ccccc12)C(=O)N[C@H]1CCCCNC(=S)SC[C@@H](C(N)=O)NC(=O)[C@H](CO)NC(=O)[C@H](CC(C)C)NC(=O)[C@H](CC(C)C)NC1=O)[C@@H](C)O` the helicity was 43.3%. For `CC(=O)N[C@H](C(=O)N[C@H]1CSC(=S)NCCCC[C@@H](C(=O)N[C@@H](Cc2c[nH]c3ccccc23)C(=O)N[C@@H](CC(N)=O)C(=O)N[C@@H](CC(C)C)C(=O)N[C@@H](CC(C)C)C(=O)N[C@@H](CO)C(=O)N2CCC[C@H]2C(N)=O)NC(=O)[C@H](CCC(=O)O)NC(=O)[C@H](C)NC(=O)[C@H](Cc2ccccc2)NC1=O)[C@@H](C)O`, the helicity was 4.81%. With `CC(=O)N[C@H](C(=O)N[C@@H](CO)C(=O)N[C@@H](Cc1ccccc1)C(=O)N[C@@H](C)C(=O)N[C@H]1CCCCNC(=S)SC[C@@H](C(=O)N[C@@H](CC(C)C)C(=O)N[C@@H](CO)C(=O)N2CCC[C@H]2C(N)=O)NC(=O)[C@H](CC(N)=O)NC(=O)[C@H](Cc2c[nH]c3ccccc23)NC(=O)[C@H](Cc2ccc(O)cc2)NC1=O)[C@@H](C)O` the helicity was 6.88%. Work on `CC(=O)N[C@H](C(=O)N[C@@H](CO)C(=O)N[C@@H](Cc1ccccc1)C(=O)N[C@H]1CCCCNC(=S)SC[C@@H](C(=O)N[C@@H](CC(C)C)C(=O)N[C@@H](CC(C)C)C(=O)N[C@@H](CO)C(=O)N2CCC[C@H]2C(N)=O)NC(=O)[C@H](Cc2c[nH]c3ccccc23)NC(=O)[C@H](Cc2ccc(O)cc2)NC(=O)[C@H](CCC(=O)O)NC1=O)[C@@H](C)O` yielded a helicity of 39.3%. Molecule `CC(=O)N[C@H]1CSC(=S)NCCCC[C@@H](C(=O)N[C@@H](Cc2ccc(O)cc2)C(=O)N[C@@H](Cc2c[nH]c3ccccc23)C(=O)N[C@@H](CC(N)=O)C(=O)N[C@@H](CC(C)C)C(=O)N[C@@H](CC(C)C)C(=O)N[C@@H](CO)C(=O)N2CCC[C@H]2C(N)=O)NC(=O)[C@H](C)NC(=O)[C@H](Cc2ccccc2)NC(=O)[C@H](CO)NC1=O` has a helicity of 8.38%. `CC(=O)N[C@H](C(=O)N[C@@H](CO)C(=O)N[C@@H](Cc1ccccc1)C(=O)N[C@@H](C)C(=O)N[C@@H](CCC(=O)O)C(=O)N[C@@H](Cc1ccc(O)cc1)C(=O)N[C@@H](Cc1c[nH]c2ccccc12)C(=O)N[C@H]1CSC(=S)NCCCC[C@@H](C(N)=O)NC(=O)[C@H](CO)NC(=O)[C@H](CC(C)C)NC(=O)[C@H](CC(C)C)NC1=O)[C@@H](C)O` gave a helicity of 0.23%.

System: not given
Assay: not given
Settings: the molecule shown is the open-chain precursor; 21-membered ring
Molecule `C=C(NC(=O)[C@H](CO)NC(=O)[C@H](CC(C)C)NC(=O)[C@H](CC(C)C)NC(=O)[C@H](CCCCNC(=S)S)NC(=O)[C@H](Cc1c[nH]c2ccccc12)NC(=O)[C@H](Cc1ccc(O)cc1)NC(=O)[C@H](CCC(=O)O)NC(=O)[C@H](C)NC(=O)[C@H](Cc1ccccc1)NC(=O)[C@H](CO)NC(=O)[C@@H](NC(C)=O)[C@@H](C)O)C(N)=O` [Ac-Thr-Ser-Phe-Ala-Glu-Tyr-Trp-Lys-Leu-Leu-Ser-Dha-NH2] has a ring closure, isolated yield of 45%. Molecule `C=C(NC(=O)[C@H](Cc1c[nH]c2ccccc12)NC(=O)[C@H](Cc1ccc(O)cc1)NC(=O)[C@H](CCC(=O)O)NC(=O)[C@H](C)NC(=O)[C@H](Cc1ccccc1)NC(=O)[C@H](CO)NC(=O)[C@@H](NC(C)=O)[C@@H](C)O)C(=O)N[C@@H](CC(C)C)C(=O)N[C@@H](CC(C)C)C(=O)N[C@@H](CO)C(=O)N[C@@H](CCCCNC(=S)S)C(N)=O` [Ac-Thr-Ser-Phe-Ala-Glu-Tyr-Trp-Dha-Leu-Leu-Ser-Lys-NH2] has a ring closure, isolated yield of 38%.

System: not listed separately
Assay: Circular dichroism spectroscopy, helical content
Assay type: physicochemical
Settings: CD, PB pH 7.2, 10-50 μM peptide, 20 °C
Procedure: Circular Dichroism (CD) Spectroscopy.
(§1) from 10-50 μM. […] The spectra were […]
With Ac-TSFAEYWNLLSP-NH2 [PMI-0] the “α-Helix (%)” value was 9.77%.

Molecular target: cathepsin G (Homo sapiens, UniProt P08311)
Sequence (P08311 21-255, species assumed): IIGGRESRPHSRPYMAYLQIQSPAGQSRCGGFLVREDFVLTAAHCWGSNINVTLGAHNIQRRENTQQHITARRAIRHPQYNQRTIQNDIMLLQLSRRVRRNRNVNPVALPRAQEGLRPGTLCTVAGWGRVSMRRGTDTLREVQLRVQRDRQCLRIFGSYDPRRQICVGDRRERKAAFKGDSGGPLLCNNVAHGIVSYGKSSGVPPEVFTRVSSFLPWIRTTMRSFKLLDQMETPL
Assay: not given
Settings: 100 μM peptide, cell culture medium (RPMI 1640), 25 μg/ml cathepsin G, room temperature, RP-HPLC and ESI-MS
Procedure: and three independent experiments were performed.
Fluorescence polarization (FP).
As an additional positive control, we
Tecan Infinite M1000 plate reader. […]
additional incubation for 64 hours.
Circular Dichroism (CD) Spectroscopy. […]
as §1
of each peptide was calculated as reported previously. 12
Stability in GSH. […] RP-
With Ac-TSFAEYWNLLSP-NH2 [PMI-0] the “time to full degradation by cathepsin G” value was ≤ 30 min.

System: not listed separately
Assay: Dithiocarbamate (DTC) stapling of unprotected peptides: Lys side-chain amine + CS2 (Et3N) gives Lys-NH-C(=S)S-, then intramolecular thia-Michael addition to dehydroalanine (Dha, made beforehand from Cys with 2,5-dibromohexanediamide and HPLC-purified)
Settings: the molecule shown is the open-chain precursor, 21-membered ring, ethanol/Et3N/CS2 10:1:1 v/v
Molecule `C=C(NC(=O)[C@H](CCC(=O)O)NC(=O)[C@H](C)NC(=O)[C@H](Cc1ccccc1)NC(=O)[C@H](CCCCNC(=S)S)NC(=O)[C@@H](NC(C)=O)[C@@H](C)O)C(=O)N[C@@H](Cc1c[nH]c2ccccc12)C(=O)N[C@@H](CC(N)=O)C(=O)N[C@@H](CC(C)C)C(=O)N[C@@H](CC(C)C)C(=O)N[C@@H](CO)C(=O)N1CCC[C@H]1C(N)=O` [Ac-Thr-Lys-Phe-Ala-Glu-Dha-Trp-Asn-Leu-Leu-Ser-Pro-NH2] has a ring closure, isolated yield of 34%. `C=C(NC(=O)[C@H](CC(N)=O)NC(=O)[C@H](Cc1c[nH]c2ccccc12)NC(=O)[C@H](Cc1ccc(O)cc1)NC(=O)[C@H](CCCCNC(=S)S)NC(=O)[C@H](C)NC(=O)[C@H](Cc1ccccc1)NC(=O)[C@H](CO)NC(=O)[C@@H](NC(C)=O)[C@@H](C)O)C(=O)N[C@@H](CC(C)C)C(=O)N[C@@H](CO)C(=O)N1CCC[C@H]1C(N)=O` [Ac-Thr-Ser-Phe-Ala-Lys-Tyr-Trp-Asn-Dha-Leu-Ser-Pro-NH2] showed a ring closure, isolated yield of 24%. `C=C(NC(=O)[C@H](C)NC(=O)[C@H](Cc1ccccc1)NC(=O)[C@H](CO)NC(=O)[C@H](CCCCNC(=S)S)NC(C)=O)C(=O)N[C@@H](Cc1ccc(O)cc1)C(=O)N[C@@H](Cc1c[nH]c2ccccc12)C(=O)N[C@@H](CC(N)=O)C(=O)N[C@@H](CC(C)C)C(=O)N[C@@H](CC(C)C)C(=O)N[C@@H](CO)C(=O)N1CCC[C@H]1C(N)=O` [Ac-Lys-Ser-Phe-Ala-Dha-Tyr-Trp-Asn-Leu-Leu-Ser-Pro-NH2] showed a ring closure, isolated yield of 28%. For `C=C(NC(=O)[C@H](Cc1c[nH]c2ccccc12)NC(=O)[C@H](Cc1ccc(O)cc1)NC(=O)[C@H](CCC(=O)O)NC(=O)[C@H](CCCCNC(=S)S)NC(=O)[C@H](Cc1ccccc1)NC(=O)[C@H](CO)NC(=O)[C@@H](NC(C)=O)[C@@H](C)O)C(=O)N[C@@H](CC(C)C)C(=O)N[C@@H](CC(C)C)C(=O)N[C@@H](CO)C(=O)N1CCC[C@H]1C(N)=O` [Ac-Thr-Ser-Phe-Lys-Glu-Tyr-Trp-Dha-Leu-Leu-Ser-Pro-NH2], the ring closure, isolated yield was 42%. Work on `C=C(NC(C)=O)C(=O)N[C@@H](CO)C(=O)N[C@@H](Cc1ccccc1)C(=O)N[C@@H](C)C(=O)N[C@@H](CCCCNC(=S)S)C(=O)N[C@@H](Cc1ccc(O)cc1)C(=O)N[C@@H](Cc1c[nH]c2ccccc12)C(=O)N[C@@H](CC(N)=O)C(=O)N[C@@H](CC(C)C)C(=O)N[C@@H](CC(C)C)C(=O)N[C@@H](CO)C(=O)N1CCC[C@H]1C(N)=O` [Ac-Dha-Ser-Phe-Ala-Lys-Tyr-Trp-Asn-Leu-Leu-Ser-Pro-NH2] yielded a ring closure, isolated yield of 37%. For `C=C(NC(=O)[C@H](C)NC(=O)[C@H](Cc1ccccc1)NC(=O)[C@H](CO)NC(=O)[C@@H](NC(C)=O)[C@@H](C)O)C(=O)N[C@@H](Cc1ccc(O)cc1)C(=O)N[C@@H](Cc1c[nH]c2ccccc12)C(=O)N[C@@H](CC(N)=O)C(=O)N[C@@H](CCCCNC(=S)S)C(=O)N[C@@H](CC(C)C)C(=O)N[C@@H](CO)C(=O)N1CCC[C@H]1C(N)=O` [Ac-Thr-Ser-Phe-Ala-Dha-Tyr-Trp-Asn-Lys-Leu-Ser-Pro-NH2], the ring closure, isolated yield was 27%. For `C=C(NC(=O)[C@@H](NC(C)=O)[C@@H](C)O)C(=O)N[C@@H](Cc1ccccc1)C(=O)N[C@@H](C)C(=O)N[C@@H](CCC(=O)O)C(=O)N[C@@H](CCCCNC(=S)S)C(=O)N[C@@H](Cc1c[nH]c2ccccc12)C(=O)N[C@@H](CC(N)=O)C(=O)N[C@@H](CC(C)C)C(=O)N[C@@H](CC(C)C)C(=O)N[C@@H](CO)C(=O)N1CCC[C@H]1C(N)=O` [Ac-Thr-Dha-Phe-Ala-Glu-Lys-Trp-Asn-Leu-Leu-Ser-Pro-NH2], the ring closure, isolated yield was 39%. For `C=C(NC(=O)[C@H](Cc1ccccc1)NC(=O)[C@H](CO)NC(=O)[C@@H](NC(C)=O)[C@@H](C)O)C(=O)N[C@@H](CCC(=O)O)C(=O)N[C@@H](Cc1ccc(O)cc1)C(=O)N[C@@H](Cc1c[nH]c2ccccc12)C(=O)N[C@@H](CCCCNC(=S)S)C(=O)N[C@@H](CC(C)C)C(=O)N[C@@H](CC(C)C)C(=O)N[C@@H](CO)C(=O)N1CCC[C@H]1C(N)=O` [Ac-Thr-Ser-Phe-Dha-Glu-Tyr-Trp-Lys-Leu-Leu-Ser-Pro-NH2], the ring closure, isolated yield was 33%. Work on `C=C(NC(=O)[C@H](Cc1c[nH]c2ccccc12)NC(=O)[C@H](Cc1ccc(O)cc1)NC(=O)[C@H](CCC(N)=O)NC(=O)[C@H](CCCCNC(=S)S)NC(=O)[C@H](Cc1ccccc1)NC(=O)[C@H](CO)NC(=O)[C@@H](NC(C)=O)[C@@H](C)O)C(=O)N[C@@H](CC(C)C)C(=O)N[C@@H](CC(C)C)C(=O)N[C@@H](CO)C(=O)N[C@@H](CCCNC(=N)N)C(N)=O` [Ac-Thr-Ser-Phe-Lys-Gln-Tyr-Trp-Dha-Leu-Leu-Ser-Arg-NH2] yielded a ring closure, isolated yield of 46%.
